Experiment [1] relates to MGH66. In words: MIC by standard microdilution, strain MGH66. To be noted: for MIC: Klebsiella pneumoniae. In kind it is cell-based, K. pneumoniae. As to the method: (§1) The cells for flow cytometry were prepared using the same scheme as the meropenem-treated sample for BacDrop. After treating with meropenem at 2 µg/mL for 30 minutes, cells were diluted into PBS at the final concentration of 10^6 cells/mL and immediately run through flow cytometer. For the flow cytometry including dead-cell staining, 10 µL propidium iodide (1 mg/mL) (Invitrogen, cat# P1304MP) was mixed with 1 mL PBS. Cells after treatment were then diluted in the staining buffer at the final concentration of 10^6 cells/mL, and incubated in the dark at room temperature for 15 minutes followed by running through flow cytometer. To sort GFP-low and GFP-high populations, cells were run through fluorescence-activated cell sorting (FACS). Applicants sorted ~10^6 cells into 2 mL LB without or with meropenem (2 µg/mL) from each population. A 50 µL aliquot from cells sorted in LB medium without antibiotics was immediately diluted and plated on LB agar plates without antibiotics. The colony forming unites (CFU) on LB agar plates were enumerated to calculate the survival rates. The rest of the cells was used to measure MICs using the standard microdilution protocol^29 or proceeded with the persister assay. For the persister assay, cells were cultured at 37° C. with shaking. At each time points, a 50 µL aliquot was taken, diluted and plated on LB agar plates without antibiotics. Three replicates were performed in each experiment.
(In broth dilution the organism is exposed to a series of concentrations in liquid medium.)

Experiment [2] deals with BIDMC35. The experiment can be described thus: MIC by standard microdilution, strain BIDMC35. In kind it is cell-based, K. pneumoniae. The settings on record: for MIC: Klebsiella pneumoniae. As to the method:
as §1

Experiment [3] concerns UCI38. In words: MIC by standard microdilution, strain UCI38. The experiment is classed as cell-based, K. pneumoniae. To be noted: for MIC: Klebsiella pneumoniae. As for the experimental part: as §1
Experiment [4] has as its system K. pneumoniae MGH66. The experiment can be described thus: Bulk RNA-seq of antibiotic-treated MGH66. The experiment is classed as cell-based. To be noted: MGH66, OD600 ~0.2, 30 minutes treatment. As for the experimental part:
(§2) K.pneumoniae, E.coli, and P. aeruginosa were cultured in Luria-Bertani (LB) medium or Mueller-Hinton Broth (MHB) with shaking at 37° C.E.faecium was cultured in Todd-Hewitt broth (THB) with shaking at 37° C. For the GFP experiment, E.coli strains expressing gfp driven by different promoters were cultured separately in LB at 37° C. Early exponential growth phase cells (OD600 ~0.2) were collected and fixed immediately. For the antibiotic treatment experiment, K.pneumoniae clinical isolate MGH66 was cultured in MHB at 37° C. until early exponential phase. Then the culture was diluted to OD600 0.05 in MHB. After growing for two doublings (~40 min, OD600 ~0.2), the cultures were split into four equal volume cultures. One culture was left untreated, while the other three were treated with relevant antibiotic at breakpoint concentrations set by the Clinical and Laboratory Standards Institute (CLSI): 2 µg/mL for meropenem, 1 µg/mL for ciprofloxacin and 4 µg/mL for gentamicin. After 30 min, 7 mL of cells were collected from each of these cultures, and immediately proceeded with the cell fixation protocol. For the bulk RNA-seq experiments, samples were collected using the same treatment schemes, and three biological replicates were included in each condition. For the BIDMC35 experiment, BIDMC35 was cultured in LB medium at 37° C. until early exponential phase (OD600 ~0.2). 7 mL cells were then collected and immediately proceed with the cell fixation protocol.
To construct sequencing libraries from bacterial cultures, cell pellets collected from 1 mL early exponential phase cultures were re-suspended in 500 µL TRIzol Reagents (ThermoFisher, CN 15596026) and frozen at -80 C for at least 20 min. Cells were then thawed and mixed with 250 µL of 0.1 mm diameter Zirconia/Silica beads (BioSpec Products), and lysed mechanically via bead-beating for 90 second at 10 m/sec on a FastPrep (MP Bio). After addition of 0.1 mL chloroform, each sample tube was mixed thoroughly by inversion, incubated for 3 minutes at room temperature, and centrifuged at 12,000 xg for 15 minutes at 4° C. […]

Experiment [5] concerns K. pneumoniae MGH66. The experiment is classed as cell-based. As for the experimental part:
as §2
All reagents (Table 5) for cell fixation and permeabilization were kept ice-cold. […] (Digital Platform Rocker Shaker, VWR). […] Subsequent centrifugations were carried out at 7000 × g for 5 minutes at 4° C. […] Cells were centrifuged and resuspended in 700 µL50% Ethanol in PBS-RI. Cells were then washed twice with PBS-RI. After the second wash, cells were resuspended in 1 mL100 mM Tris-HCL (pH 7.5) supplemented with 0.1 U/uL NxGen RNase inhibitor.
Insufficient permeabilization may result in inefficient rRNA depletion and gDNA removal. For 1 permeabilization reaction, up to 40 million cells were centrifuged and resuspended in 250 µL0.04% Tween-20 in 1x PBS. If more cells are desired, multiple parallel reactions can be set up. Immediately following a 3-minute incubation on ice, 1 mL cold PBS-RI was added, and cells were spun down and resuspended in 200 µL lysozyme mix (100 mM Tris (pH 8.0), 50 mM EDTA pH 8.0, 0.25 U/µL NxGen RNase Inhibitor, 2.5 mg/mL lysozyme). Cells were then incubated at 37° C. for 15 minutes. After the incubation, 1 mL PBS-RI was added and cells were washed twice with 175 µL PBS-RI. After the second wash, cells were resuspended in 150 µL PBS (without RNase inhibitor added) and cell concentrations were measured.
Immediately after cell permeabilization, up to 40 million cells were centrifuged and resuspended in 11 µL nuclease-free H2O. 2 µL NEBNext Bacterial rRNA depletion solution and 2 µL Probe Hybridization Buffer (NEB, CN E7850) were mixed with cells on ice. The hybridization was conducted per the following (lid temperature set to 55° C.): 50° C. for 2 minutes, ramp down to 22° C. at 0.1° C. /second, and hold at 22° C. for 5 minutes. Probe hybridization was immediately followed by RNase H digestion by mixing the probe-hybridized cells with 2 µL RNase H reaction buffer, 2 µL Thermostable RNase H (NEB, CN E7850), and 1 µL nuclease-free H2O, followed by a 30-minute incubation at 50° C. (lid temperature set to 55° C.). […] The reaction was incubated at room temperature for 30 minutes, and the DNase treatment was stopped by adding 1 µL Stop Solution (50 mM EDTA) and incubating at 50° C. for 10 minutes. After the incubation, cells were centrifuged and washed twice with 100 µL PBS-RI. After the second wash, cells were resuspended in 20 µL0.5x PBS supplemented with 1 U/µL SUPERase-In RNase inhibitor and used immediately for in-cell reverse transcription.

For experiment [6], the system named is E. coli 10ß. The experiment can be described thus: MIC by standard microdilution, strain E. coli 10ß. The experiment is classed as cell-based. As for the experimental part:
as §1, with “Three replicates were performed in each experiment.” left out

In experiment [7] the test system is MGH66:pBA D: cspD. The experiment can be described thus: MIC by standard microdilution, strain MGH66:pBAD:cspD. In kind it is cell-based, K. pneumoniae. The settings on record: cspD induced with 1% arabinose. As for the experimental part: as §1, with “Three replicates were performed in each experiment.” left out
Experiment [8] has as its system MGH66. In words: RNA FISH of meropenem-treated MGH66. In kind it is cell-based, K. pneumoniae. To be noted: meropenem-treated MGH66, 20 fields of view. As for the experimental part:
RNA FISH probes were designed using Design Probes tool of DECIPHER^32. 3 - 5 probes were designed for each target gene (Table 11). Probes were synthesized at Integrated DNA technologies and labeled with either Cy3 or Alex488 dye at the 5′. Probes of the same gene were pooled together and diluted into 10 µM stocks. Meropenem-treated MGH66 cells were fixed and permeabilized using the same protocol as the cell fixation and permeabilization steps in BacDrop. The hybridization was carried out in 40% hybridization buffer at 50° C. overnight and the following washing steps of washing were performed as described previously^33. Cells were imaged using the DeltaVision widefield deconvolution imaging system with a 60x objective. ImageJ was used for image data analysis and cell quantification.

The test system of experiment [9] is MGH66:PyhcN:gfp and MGH66:PcspD:gfp. In words: Flow cytometry/FACS of GFP reporter strains with live/dead staining. In kind it is cell-based, K. pneumoniae.
Text: (§3) Applicants amplified the promoter region of cspD or yhcN from MGH66 and ligated it into pUA139^26 using the BamHI and XhoI sites, resulting in pUA139-PcspD and pUA139-PyhcN. The construct was then transformed into E.coli DH5a and the plasmids were extracted and verified using Sanger sequencing. Electrocompetent cells of MGH66 was made as previously reported^22. The extracted plasmids were then transformed into MGH66 via electroporation, generating MGH66: PcspD:gfp and MGH66: PyhcN:gfp.
as §1
In general terms: A flow cytometer gives signals particle by particle.

Experiment [10] deals with MGH66. In words: Killing kinetics of MGH66 treated with antibiotics (CFU). To be noted: MGH66, at 30 minutes. The experiment is classed as cell-based, K. pneumoniae. As for the experimental part: At each time points, cells from meropenem treatment (green), Ciprofloxacin treatment (blue), Gentamicin treatment (purple), and the untreated samples were diluted and plated on LB agar plates without antibiotics. CFUs from each condition were normalized to the CFUs of the untreated samples at the same time points to calculate the killing rates for each time points. The experiment was repeated three times and the error bars are plotted as standard deviation.

Experiment [11] deals with MGH66:PcspD:gfp sorted subpopulations; MGH66 over-expressing cspD. In words: Persister assay (CFU over time under meropenem). In kind it is cell-based, K. pneumoniae. The settings on record: meropenem 2 µg/mL. As for the experimental part:
as §1, with “Three replicates were performed in each experiment.” left out

Experiment [12] deals with MGH66: PyhcN:gfp. In words: MIC by standard microdilution, reporter strain MGH66: PyhcN:gfp. In kind it is cell-based, K. pneumoniae.
Text: as §3
(§4) The cells for flow cytometry were prepared using the same scheme as the meropenem-treated sample for BacDrop. After treating with meropenem at 2 µg/mL for 30 minutes, cells were diluted into PBS at the final concentration of 10^6 cells/mL and immediately run through flow cytometer. For the flow cytometry including dead-cell staining, 10 µL propidium iodide (1 mg/mL) (Invitrogen, cat# P1304MP) was mixed with 1 mL PBS. Cells after treatment were then diluted in the staining buffer at the final concentration of 10^6 cells/mL, and incubated in the dark at room temperature for 15 minutes followed by running through flow cytometer. To sort GFP-low and GFP-high populations, cells were run through fluorescence-activated cell sorting (FACS). Applicants sorted ~10^6 cells into 2 mL LB without or with meropenem (2 µg/mL) from each population. […]

Experiment [13] deals with MGH66: PcpsD:gfp. In words: MIC by standard microdilution, reporter strain MGH66: PcpsD:gfp. In kind it is cell-based, K. pneumoniae.
Text: as §3, §4

Where [14] appears, read: meropenem-treated MGH66, 2 µg/mL, 30 min.
The mark [15] stands for this setting: 30 minutes of meropenem treatment.

In brackets after ≈: the same amount, converted by molar mass. Some results are limits rather than exact numbers.

What is called MIC is the smallest concentration in the dilution series that meets the test's criterion for growth inhibition. Read a low MIC as greater potency. `O=C(O)c1cn(C2CC2)c2cc(N3CCNCC3)c(F)cc2c1=O` [Ciprofloxacin, ciprofloxacin]: the values for the MIC in experiment [1], in [2] and in [3] were 0.03 µg/mL (≈ 0.0905 µM), over 32 µg/mL and 32 µg/mL (≈ 96.6 µM), respectively. The “transcriptional response in bulk RNA-seq relative to untreated control” value in experiment [4] is recorded as “induced genes involved in SOS response”. The “heterogeneity of single-cell transcriptional response” value in experiment [5] (MGH66, 30 min treatment) is “did not detect obvious heterogeneity of response”.

As to `C[C@@H](O)[C@H]1C(=O)N2C(C(=O)O)=C(S[C@@H]3CN[C@H](C(=O)N(C)C)C3)[C@H](C)[C@H]12` [Meropenem, meropenem], in experiment [1], inhibition of growth (MIC) required 0.03 µg/mL (≈ 0.0782 µM). The compound also returned an MIC in [2] of over 32 µg/mL. In experiment [3], this compound returned an MIC of 0.03 µg/mL (≈ 0.0782 µM). Also, in [6] (Escherichia coli), the MIC was under 0.03 µg/mL. Moreover, in experiment [7], the “effect of cspD induction on MIC” value is on record as “did not affect”. Besides, the “transcriptional response in bulk RNA-seq relative to untreated control” value in experiment [4] is given as “minimal transcriptional responses”. In addition, in experiment [5] (meropenem-treated MGH66), the “cells co-expressing cspD and rihC, BacDrop” value is ~ 0.7%; the “cells co-expressing rseB + yidC, BacDrop” value is recorded as ~ 8%. Moreover, in [5] (setting [14]), the “cells in DNA replication and cell division subpopulation (cluster 9)” value amounted to 1%; the “cells in cell wall/membrane synthesis subpopulation (cluster 7 and 11)” value was 5.7%; the “cells in cspD-expressing subpopulation (cluster 10)” value was 0.7%; the “cells in strongest stress response subpopulation (clusters 5 and 12)” value is 8%. Besides, in [8], the “cells co-expressing cspD and rihC, RNA FISH” value was ~ 0.85%; the “cells co-expressing rseB + yidC, RNA FISH” value was ~ 12%. For the same compound, in experiment [9] (setting [15]), the “dead cells in the gated population (propidium iodide)” value is recorded as ~ 15.2%, the “live cells in the GFP-high population” value was “about 94%” and the “live cells in the GFP-low population” value is recorded as “approximately 80%”. For the same compound, the “heterogeneous expression of yhcN or cspD GFP reporters” value in experiment [9] (MGH66:PyhcN:gfp, relative to untreated control) is recorded as “induced heterogeneous expression”. Further, in [10], the “impact on cell killing” value is “same impact on cell killing as ciprofloxacin and gentamicin”. In addition, the “persister cells in MGH66 over-expressing cspD versus without induction” value in experiment [11] (1% arabinose induction) is recorded as ~ 100 times. Further, the “tolerant cells/persisters in GFP-high versus GFP-low sorted subpopulation” value in experiment [11] (MGH66:PcspD:gfp sorted after 30-minute exposure) was “enriched for meropenem tolerant cells”.

As for gentamicin, the MICs in experiment [1] was 1 µg/mL; in experiment [2] it was 0.5 µg/mL; in [3], 2 µg/mL; in experiment [6], under 0.03 µg/mL; in experiment [12], 1 µg/mL; in experiment [13], 1 µg/mL. Moreover, the “transcriptional response in bulk RNA-seq relative to untreated control” value in [4] is “induced a group of heat shock chaperone proteins”. For the same compound, the “heterogeneity of single-cell transcriptional response” value in [5] (MGH66, 30 min treatment) is listed as “did not detect obvious heterogeneity of response”. Further, the “treated cells belonging to the heat-shock response cluster” value in experiment [5] (MGH66, 30 min treatment, across both replicates) was 66%-71%.
